Measurements as given in US6265423A, “Aromatic polycyclic retinoid-type derivatives, method for preparing same, and use thereof for making pharmaceutical and cosmetic compositions” (priority 1996, dated 2001).
Where two headings read alike, the source gives them in different places.

Tests used:
Assay type in all cases: cell-based
[1] = tested on: human mammary tumoral lineage T-47D; experiment: Clonogenic test (soft agar), growth of cellular colonies; details: for activity at 0.1 µM / activity at 0.01 µM / activity at 0.001 µM / activity at 0.0001 µM: 504 h, read-out: mean number of cellular colonies in relation to control; for effect on growth of cellular colonies (in words): soft agar
Outline: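 T-47D cells of over 90% viability were seeded in 0.3% agar over a 0.5% agar base and kept at 37 °C with 5% CO2 for 21 days after treatment. After staining with MTT (1 mg/ml, at least 3 h), colonies larger than 100 μm² were counted microscopically and expressed as a percentage of control.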

RARγ-ERcassette = experiment: Transactivation, chimerical receptor RARγ-ERcassette (HeLa); details: TTNPB 10^-8 M = 100
Source text: The HeLa cells are co-transfected by a plasmid which codes for a retinoic receptor in which the C domain of bonding to the DNA is substituted by that of the receptor to RE oestrogens, and a plasmid which places the expression of the luciferase under the control of an ERE (Element of Response to Oestrogens). The expressed chimerical receptors are designated as RARα-ERcassette, RARβ-ERcassette, RARγ-ERcassette and RXRα-ERcassette. The A, B, D, E and F regions of the natural receptor are preserved as well as the transcriptional co-operation between the activation domains AF-1 and AF-2. These transitory transfection experiments follow the method of co-precipitation to calcium phosphate. The HeLa cells are co-transfected by […] of plasmid coding for the chimerical receptor, […] of reporter plasmid and […] of expression vector CMV-β-galactosidase used as an internal control of transfection. 24 hours after the transfection, the cells are incubated for 16 hours with the different effectors.
In this type of chimerical receptor, the C domain of bonding to the DNA of RAR is substituted by that of the receptor to the RE oestrogens. The protein obtained is close to the natural RAR receptor and preserves the transcriptional properties of the AF-1 and AF-2 domains. It modulates the transcription by means of an ERE. This RAR-ERcassette model allows one to observe a transcriptional response to a more physiological ligand.

[2] = tested on: Gal4-RAR (RARα, RARβ, RARγ); experiment: Chimerical receptors Gal4-RAR, overall profile
Gal4-RARβ = experiment: Transactivation, chimerical receptor Gal4-RARβ (transitory transfection of HeLa); details: 100% = TTNPB 10^-8 M
[3] = Homo sapiens, T47D, T-47D, 10^-7 M, 21 days, control = 100%
[4] = Homo sapiens, T47D, T-47D, 10^-8 M, 21 days, control = 100%
[5] = Homo sapiens, T47D, T-47D, 10^-9 M, 21 days, control = 100%
[6] = Homo sapiens, T47D, T-47D, 10^-10 M, 21 days, control = 100%

CC(C=C/C=C(C)\C=C\C1=C(C)CCCC1(C)C)=CC(=O)O [CB13407, 9-cis retinoic acid, reference compound]
activity at 0.1 µM [1, 3]: 6.7% | activity at 0.01 µM [1, 4]: 45.6% | activity at 0.001 µM [1, 5]: 52.8% | activity at 0.0001 µM [1, 6]: 54.9% | effect on growth of cellular colonies (in words) ([1]; T-47D): significant and dose dependent inhibiting activity | RAR-ERcassette RARγ transactivation (RARγ-ERcassette; 10^-6 M): 157% | RAR-ERcassette RARγ transactivation (RARγ-ERcassette; 10^-7 M): 108% | RAR-ERcassette RARγ transactivation (RARγ-ERcassette; 10^-8 M): 56% | RAR-ERcassette RARγ transactivation (RARγ-ERcassette; 10^-9 M): 11%

CC1=C(/C=C/C(C)=C/C=C/C(C)=C/C(=O)O)C(C)(C)CCC1 [CB16178, all-trans retinoic acid, reference compound]
RAR-ERcassette RARγ transactivation (RARγ-ERcassette; 10^-6 M): 189% | RAR-ERcassette RARγ transactivation (RARγ-ERcassette; 10^-7 M): 122% | RAR-ERcassette RARγ transactivation (RARγ-ERcassette; 10^-8 M): 114% | RAR-ERcassette RARγ transactivation (RARγ-ERcassette; 10^-9 M): 86% | Gal-RAR agonist profile (in words) [2]: good RAR agonists | GAL4-RAR RARβ transactivation (Gal4-RARβ; 10^-6 M): 92% | GAL4-RAR RARβ transactivation (Gal4-RARβ; 10^-7 M): 93% | GAL4-RAR RARβ transactivation (Gal4-RARβ; 10^-8 M): 104%

C/C(=C/c1ccc2c(c1)C(C)(C)CCC2(C)C)c1ccc(C(=O)O)nc1 [CB16279, (Z) 5-[1-(5,6,7,8-tetrahydro-5,5,8,8-tetramethyl-2-naphthalenyl)-2-propenyl]pyridinyl-2-carboxylic acid]
activity at 0.1 µM [1, 3]: 102 ± 3.4% | activity at 0.001 µM [1, 5]: 110 ± 1.5% | effect on growth of cellular colonies (in words) ([1]; T-47D): does not induce any significant modification in the growth of the cellular colonies | RAR-ERcassette RARγ transactivation (RARγ-ERcassette; 10^-6 M): 71% | RAR-ERcassette RARγ transactivation (RARγ-ERcassette; 10^-7 M): 15% | Gal-RAR agonist profile (in words) [2]: partial agonists at 1 μM for the three RAR receptors | GAL4-RAR RARβ transactivation (Gal4-RARβ; 10^-6 M): 47%

C/C(=C/c1ccc2c(c1)C(C)(C)CCC2(C)C)c1ccc(C(=O)O)cc1 [CB28628, reference compound]
activity at 0.1 µM [1, 3]: 21.4% | activity at 0.01 µM [1, 4]: 97.6% | activity at 0.001 µM [1, 5]: 89.2% | effect on growth of cellular colonies (in words) ([1]; T-47D): strongly and significantly inhibits the growth of the cellular colonies at the concentration of 10^-7 M but very rapidly loses its activity beyond the concentration of 10^-8 M | RAR-ERcassette RARγ transactivation (RARγ-ERcassette; 10^-6 M): 92% | RAR-ERcassette RARγ transactivation (RARγ-ERcassette; 10^-7 M): 87% | RAR-ERcassette RARγ transactivation (RARγ-ERcassette; 10^-8 M): 55% | Gal-RAR agonist profile (in words) [2]: completely agonistic for the three types of RAR receptors | GAL4-RAR RARβ transactivation (Gal4-RARβ; 10^-7 M): 102%

CC1(C)CCC(C)(C)c2cc(/C=C(\c3ccc(C(=O)O)cc3)C(F)(F)F)ccc21 [CB36493, (E) 4-[1-trifluoromethyl-2-(5,6,7,8-tetrahydro-5,5,8,8-tetramethyl-2-naphthalenyl)-1-ethenyl]benzoic acid]
activity at 0.01 µM [1, 4]: 17.4 ± 2% | activity at 0.001 µM [1, 5]: 24.8 ± 0.5% | activity at 0.0001 µM [1, 6]: 35.8 ± 3.2% | effect on growth of cellular colonies (in words) ([1]; T-47D): as active as the reference products CB13407 (9-cis RA) and LGD1069 | RAR-ERcassette RARγ transactivation (RARγ-ERcassette; 10^-6 M): 26% | RAR-ERcassette RARγ transactivation (RARγ-ERcassette; 10^-7 M): 5% | RAR-ERcassette RARγ transactivation (RARγ-ERcassette; 10^-8 M): 0% | Gal-RAR agonist profile (in words) [2]: partial agonists at 1 μM for the three RAR receptors | GAL4-RAR RARβ transactivation (Gal4-RARβ; 10^-6 M): 44%

C/C(=C/c1ccc2c(c1)C(C)(C)CCC2(C)C)c1ccc(C(=O)O)cn1 [CB38416, (Z) 2-[1-(5,6,7,8-tetrahydro-5,5,8,8-tetramethyl-2-naphthalenyl)-2-propenyl]pyridinyl-5-carboxylic acid]
activity at 0.1 µM [1, 3]: 11.6 ± 1.9% | activity at 0.01 µM [1, 4]: 15.3 ± 1.7% | activity at 0.001 µM [1, 5]: 20 ± 0.2% | effect on growth of cellular colonies (in words) ([1]; T-47D): as active as the reference products CB13407 (9-cis RA) and LGD1069 | RAR-ERcassette RARγ transactivation (RARγ-ERcassette; 10^-6 M): 62% | RAR-ERcassette RARγ transactivation (RARγ-ERcassette; 10^-7 M): 14% | RAR-ERcassette RARγ transactivation (RARγ-ERcassette; 10^-8 M): 4% | Gal-RAR agonist profile (in words) [2]: partial agonist for RARα and RARβ but complete for RARγ | GAL4-RAR RARβ transactivation (Gal4-RARβ; 10^-6 M): 51%

C/C(=C\c1cc2c(cc1C)C(C)(C)CCC2(C)C)c1ccc(C(=O)O)cc1 [CB71802]
activity at 0.01 µM [1, 4]: 45.2 ± 4.8% | activity at 0.001 µM [1, 5]: 92.5 ± 9.6% | activity at 0.0001 µM [1, 6]: 104 ± 2.3%

C/C(=C\c1ccc2c(c1)C(C)(C)CCC2(C)C)c1ccc(C(=O)Nc2nnn[nH]2)cc1 [CB73364]
activity at 0.01 µM [1, 4]: 10.3 ± 2.8% | activity at 0.001 µM [1, 5]: 54.9 ± 5.8% | activity at 0.0001 µM [1, 6]: 99.3 ± 7.8% | inhibition at 0.01 µM ([1]; Homo sapiens, T47D, T-47D, 10^-8 M, read-out: inhibition of colony growth): 69.7% | effect on growth of cellular colonies (in words) ([1]; T-47D): inhibit the growth of the cellular colonies | RAR-ERcassette RARγ transactivation (RARγ-ERcassette; 10^-6 M): 78%

CC1(C)CCC(C)(C)c2cc(/C=C(\c3ccc(-c4nnn[nH]4)cc3)C(F)(F)F)ccc21 [CB77402, (E) 5-[4-[1-trifluoromethyl-2-(5,6,7,8-tetrahydro-5,5,8,8-tetramethyl-2-naphthalenyl)-1-ethenyl]phenyl]-1H-tetrazole]
RAR-ERcassette RARγ transactivation (RARγ-ERcassette; 10^-6 M): 8% | RAR-ERcassette RARγ transactivation (RARγ-ERcassette; 10^-7 M): 0% | RAR-ERcassette RARγ transactivation (RARγ-ERcassette; 10^-8 M): 0% | Gal-RAR agonist profile (in words) [2]: not RAR agonists | GAL4-RAR RARβ transactivation (Gal4-RARβ; 10^-6 M): 0%

C/C(=C/c1ccc2c(c1)C(C)(C)CCC2(C)C)c1ccc(-c2nnn[nH]2)cc1 [CB92834]
activity at 0.01 µM [1, 4]: 38 ± 2% | activity at 0.001 µM [1, 5]: 58.9 ± 3.7% | activity at 0.0001 µM [1, 6]: 82.5 ± 12% | effect on growth of cellular colonies (in words) ([1]; T-47D): global inhibiting and dose dependent activity as great as that obtained with the best products in the trans series (E) | RAR-ERcassette RARγ transactivation (RARγ-ERcassette; 10^-6 M): 0% | RAR-ERcassette RARγ transactivation (RARγ-ERcassette; 10^-7 M): 7% | RAR-ERcassette RARγ transactivation (RARγ-ERcassette; 10^-8 M): 2% | Gal-RAR agonist profile (in words) [2]: not RAR agonists | GAL4-RAR RARβ transactivation (Gal4-RARβ; 10^-6 M): 0%

Cc1cc2c(cc1C(=O)c1ccc(C(=O)O)cc1)C(C)(C)CCC2(C)C [LGD-CB14499, reference compound]
RAR-ERcassette RARγ transactivation (RARγ-ERcassette; 10^-6 M): 66% | RAR-ERcassette RARγ transactivation (RARγ-ERcassette; 10^-7 M): 31% | RAR-ERcassette RARγ transactivation (RARγ-ERcassette; 10^-8 M): 13% | GAL4-RAR RARβ transactivation (Gal4-RARβ; 10^-6 M): 9% | GAL4-RAR RARβ transactivation (Gal4-RARβ; 10^-7 M): 1% | GAL4-RAR RARβ transactivation (Gal4-RARβ; 10^-8 M): 0%

C/C(=C\c1ccc(C(=O)O)cc1)c1ccc2c(c1)C(C)(C)CCC2(C)C [TTNPB, reference compound]
activity at 0.0001 µM ([1]; Homo sapiens, T47D): 34.1% | activity at 0.001 µM ([1]; Homo sapiens, T47D): 5.5% | activity at 0.01 µM ([1]; Homo sapiens, T47D): 2.1% | activity at 0.1 µM ([1]; Homo sapiens, T47D): 1.3% | inhibition at 0.0001 µM ([1]; Homo sapiens, T47D, read-out: inhibition of colony growth): 66% | effect on growth of cellular colonies (in words) ([1]; T-47D): more active than the product CB36493 of the cis series (Z) | effect on growth of cellular colonies (in words) ([1]; T-47D, listed as CB01570): inhibits very strongly, in a significant and dose dependent manner the growth of cellular colonies | RAR-ERcassette RARγ transactivation (RARγ-ERcassette; 10^-9 M): 66% | Gal-RAR agonist profile (in words) [2]: good RAR agonists
